Assay results published in patent publication US10370343B2, “[6,6] Fused bicyclic HDAC8 inhibitors” (FORMA Therapeutics, Inc., priority 2015, dated 2019).

Key:
[1] = biological target: T1, Full length human recombinant HDAC8 protein (Homo sapiens, UniProt Q9BY41); assay: In vitro histone deacetylase assay: enzymatic HDAC8 electrophoretic mobility shift assay; format: biochemical; details: electrophoretic mobility shift assay; enzyme 1 nM; 2 μM fluorescently labeled peptide substrate RHKK(Ac)-NH2; 25° C.; 12 concentrations; read-out: HDAC8 IC50
T1 construct: Full length human recombinant HDAC8 protein was expressed in baculoviral system; made in house
T1 sequence (Q9BY41 1-377): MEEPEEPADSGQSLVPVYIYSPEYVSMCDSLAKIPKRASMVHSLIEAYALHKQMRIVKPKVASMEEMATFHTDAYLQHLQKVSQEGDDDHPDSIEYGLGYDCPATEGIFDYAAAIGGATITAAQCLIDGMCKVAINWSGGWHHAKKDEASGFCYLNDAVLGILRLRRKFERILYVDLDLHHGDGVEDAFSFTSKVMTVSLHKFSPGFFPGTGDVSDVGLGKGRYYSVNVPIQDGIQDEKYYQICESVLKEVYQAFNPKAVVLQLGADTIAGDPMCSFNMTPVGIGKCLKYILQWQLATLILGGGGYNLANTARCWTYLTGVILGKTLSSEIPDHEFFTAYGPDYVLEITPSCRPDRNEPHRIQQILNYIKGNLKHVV

[2] = biological target: T2, Recombinant N-terminal GST tag full-length human HDAC8 (Homo sapiens, UniProt Q9BY41); assay: HDAC8 probe binding assay, time resolved fluorescence (TRF) format; details: compounds grouped by IC50 range (Table 2)
T2 construct: Recombinant N-terminal GST tag full-length human HDAC8; purchased SignalChem H90-30G-1000; host or cells: baculovirus in Sf9 insect cells
T2 sequence (Q9BY41 1-377): T1 sequence (Q9BY41 1-377)
Summary of the method: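 IC50 values come from four-parameter logistic fits of percent inhibition, scaled between DMSO (high) and no-enzyme (low) controls. Time-resolved fluorescence (ex 340, em 485/535 nm) was read after 16 h at room temperature. Enzyme was Sf9-expressed full-length human HDAC8 with an N-terminal GST tag, in a probe-binding format.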

IC50 [1] [nM] | IC50 [2] [nM] | SMILES
100 to 1000 | 25 to 100 | O=C(NO)c1ccc2c(c1)N(c1ccccc1)C(=O)CO2 [Compound I-357, N-hydroxy-3-oxo-4-phenyl-3,4-dihydro-2H-benzo[b][1,4]oxazine-6-carboxamide]
25 to 100 | 25 to 100 | COc1ccc(CN2C(=O)C3(CCC3)Oc3ccc(C(=O)NO)cc32)cc1 [Compound I-157, N-hydroxy-4-(4-methoxybenzyl)-3-oxo-3,4-dihydrospiro[benzo[b][1,4]oxazine-2,1′-cyclobutane]-6-carboxamide]
100 to 1000 | > 1000 | CC(C)n1c(CN2C(=O)COc3ccc(C(=O)NO)cc32)nc2ccccc21 [Compound I-281, N-hydroxy-4-((1-isopropyl-1H-benzo[d]imidazol-2-yl)methyl)-3-oxo-3,4-dihydro-2H-benzo[b][1,4]oxazine-6-carboxamide]
< 25 | ≤ 25 | COc1ccc2oc(CN3C(=O)COc4ccc(C(=O)NO)cc43)nc2c1 [Compound I-285, N-hydroxy-4-((5-methoxybenzo[d]oxazol-2-yl)methyl)-3-oxo-3,4-dihydro-2H-benzo[b][1,4]oxazine-6-carboxamide]
< 25 | ≤ 25 | O=C(NO)c1ccc2c(c1)N(Cc1cn(-c3ccccc3)nn1)C(=O)CO2 [Compound I-77, N-hydroxy-3-oxo-4-[(1-phenyl-1H-1,2,3-triazol-4-yl)methyl]-3,4-dihydro-2H-1,4-benzoxazine-6-carboxamide]
< 25 | ≤ 25 | O=C(NO)c1ccc2c(c1)N(Cc1ccc(C(F)(F)F)cc1F)C(=O)CO2 [Compound I-274, 4-(2-fluoro-4-(trifluoromethyl)benzyl)-N-hydroxy-3-oxo-3,4-dihydro-2H-benzo[b][1,4]oxazine-6-carboxamide]
25 to 100 | 25 to 100 | O=C(NO)c1ccc2c(c1)N(CCc1ccccc1)C(=O)CO2 [Compound I-58, N-hydroxy-3-oxo-4-phenethyl-3,4-dihydro-2H-benzo[b][1,4]oxazine-6-carboxamide]
25 to 100 | 25 to 100 | O=C(NO)c1ccc2c(c1)N(Cc1cc(F)cc(C(F)(F)F)c1)C(=O)CO2 [Compound I-276, 4-(3-fluoro-5-(trifluoromethyl)benzyl)-N-hydroxy-3-oxo-3,4-dihydro-2H-benzo[b][1,4]oxazine-6-carboxamide]
25 to 100 | ≤ 25 | COc1ccc(CN2C(=O)C(Cc3ccccc3)Oc3ccc(C(=O)NO)cc32)cc1 (centres unmarked) [Compound I-102, 2-benzyl-N-hydroxy-4-(4-methoxybenzyl)-3-oxo-3,4-dihydro-2H-benzo[b][1,4]oxazine-6-carboxamide]
25 to 100 | 25 to 100 | Cc1nc(-c2ccccc2)sc1CN1C(=O)COc2ccc(C(=O)NO)cc21 [Compound I-76, N-hydroxy-4-((4-methyl-2-phenylthiazol-5-yl)methyl)-3-oxo-3,4-dihydro-2H-benzo[b][1,4]oxazine-6-carboxamide]
25 to 100 | ≤ 25 | Cc1cccc(CN2C(=O)COc3ccc(C(=O)NO)cc32)c1 [Compound I-68, N-hydroxy-4-(3-methylbenzyl)-3-oxo-3,4-dihydro-2H-benzo[b][1,4]oxazine-6-carboxamide]
25 to 100 | 25 to 100 | COc1ccc(CN2C(=O)C(C)(C)Oc3ccc(C(=O)NO)cc32)cc1 [Compound I-98, N-hydroxy-4-(4-methoxybenzyl)-2,2-dimethyl-3-oxo-3,4-dihydro-2H-benzo[b][1,4]oxazine-6-carboxamide]
< 25 | ≤ 25 | O=C(NO)c1ccc2c(c1)N(Cc1cc(C(F)(F)F)ccc1Cl)C(=O)CO2 [Compound I-259, 4-(2-chloro-5-(trifluoromethyl)benzyl)-N-hydroxy-3-oxo-3,4-dihydro-2H-benzo[b][1,4]oxazine-6-carboxamide]
25 to 100 | 25 to 100 | COc1cccc(N2C(=O)COc3ccc(C(=O)NO)cc32)c1 [Compound I-358, N-hydroxy-4-(3-methoxyphenyl)-3-oxo-3,4-dihydro-2H-1,4-benzoxazine-6-carboxamide]
100 to 1000 | 25 to 100 | O=C(NO)c1ccc2c(c1)N(Cc1ccc(F)cc1C(F)(F)F)C(=O)CO2 [Compound I-277, 4-(4-fluoro-2-(trifluoromethyl)benzyl)-N-hydroxy-3-oxo-3,4-dihydro-2H-benzo[b][1,4]oxazine-6-carboxamide]
< 25 | ≤ 25 | COc1ccc(CN2C(=O)COc3ccc(C(=O)NO)cc32)cc1 [Compound I-141, N-hydroxy-4-(4-methoxybenzyl)-3-oxo-3,4-dihydro-2H-benzo[b][1,4]oxazine-6-carboxamide]
100 to 1000 | 25 to 100 | O=C(NO)c1ccc2c(c1)N(CC[C@@H]1CCS(=O)(=O)C1)C(=O)CO2 (stereo in doubt) [Compound I-54, 4-(2-(1,1-dioxidotetrahydrothiophen-3-yl)ethyl)-N-hydroxy-3-oxo-3,4-dihydro-2H-benzo[b][1,4]oxazine-6-carboxamide]
< 25 | ≤ 25 | O=C(NO)c1ccc2c(c1)N(Cc1nc3ccccc3o1)C(=O)CO2 [Compound I-288, 4-(benzo[d]oxazol-2-ylmethyl)-N-hydroxy-3-oxo-3,4-dihydro-2H-benzo[b][1,4]oxazine-6-carboxamide]
100 to 1000 | 25 to 100 | COc1ccc(CN2C(=O)COc3ccc(C(=O)NO)cc32)c(C(F)(F)F)c1 [Compound I-249, N-hydroxy-4-(4-methoxy-2-(trifluoromethyl)benzyl)-3-oxo-3,4-dihydro-2H-benzo[b][1,4]oxazine-6-carboxamide]
25 to 100 | 25 to 100 | CCCCN1C(=O)COc2ccc(C(=O)NO)cc21 [Compound I-45, 4-butyl-N-hydroxy-3-oxo-3,4-dihydro-2H-benzo[b][1,4]oxazine-6-carboxamide]
25 to 100 | ≤ 25 | O=C(NO)c1ccc2c(c1)N(Cc1nc(-c3ccccc3)sc1Cl)C(=O)CO2 [Compound I-255, 4-((5-chloro-2-phenylthiazol-4-yl)methyl)-N-hydroxy-3-oxo-3,4-dihydro-2H-benzo[b][1,4]oxazine-6-carboxamide]
25 to 100 | ≤ 25 | Cc1ccc(CN2C(=O)COc3ccc(C(=O)NO)cc32)c(C)c1 [Compound I-280, 4-(2,4-dimethylbenzyl)-N-hydroxy-3-oxo-3,4-dihydro-2H-benzo[b][1,4]oxazine-6-carboxamide]
25 to 100 | 25 to 100 | O=C(NO)c1ccc2c(c1)N(CC1CCCCC1)C(=O)CO2 [Compound I-149, 4-(cyclohexylmethyl)-N-hydroxy-3-oxo-3,4-dihydro-2H-benzo[b][1,4]oxazine-6-carboxamide]
< 25 | ≤ 25 | O=C(NO)c1ccc2c(c1)N(Cc1ccc(Cl)c(Cl)c1)C(=O)CO2 [Compound I-258, 4-(3,4-dichlorobenzyl)-N-hydroxy-3-oxo-3,4-dihydro-2H-benzo[b][1,4]oxazine-6-carboxamide]
< 25 | 25 to 100 | CC1(C)Oc2ccc(C(=O)NO)cc2N(Cc2nc3cc(Cl)ccc3s2)C1=O [Compound I-296, 4-((5-chlorobenzo[d]thiazol-2-yl)methyl)-N-hydroxy-2,2-dimethyl-3-oxo-3,4-dihydro-2H-benzo[b][1,4]oxazine-6-carboxamide]
100 to 1000 | 25 to 100 | CS(=O)(=O)c1cccc(CN2CCOc3ccc(C(=O)NO)cc32)c1 [Compound I-125, N-hydroxy-4-(3-(methylsulfonyl)benzyl)-3,4-dihydro-2H-benzo[b][1,4]oxazine-6-carboxamide]
< 25 | 25 to 100 | O=C(NO)c1ccc2c(c1)N(Cc1ccccc1Cl)C(=O)CO2 [Compound I-147, 4-(2-chlorobenzyl)-N-hydroxy-3-oxo-3,4-dihydro-2H-benzo[b][1,4]oxazine-6-carboxamide]
< 25 | ≤ 25 | O=C(NO)c1ccc2c(c1)N(Cc1nc3ccc(F)cc3o1)C(=O)CO2 [Compound I-218, 4-((6-fluorobenzo[d]oxazol-2-yl)methyl)-N-hydroxy-3-oxo-3,4-dihydro-2H-benzo[b][1,4]oxazine-6-carboxamide]
25 to 100 | 25 to 100 | O=C(NO)c1ccc2c(c1)N(Cc1cccc(C(F)(F)F)c1F)C(=O)CO2 [Compound I-265, 4-(2-fluoro-3-(trifluoromethyl)benzyl)-N-hydroxy-3-oxo-3,4-dihydro-2H-benzo[b][1,4]oxazine-6-carboxamide]
100 to 1000 | 25 to 100 | O=C(NO)c1ccc2c(c1)N(Cc1ccccc1)CCO2 [Compound I-116, 4-benzyl-N-hydroxy-3,4-dihydro-2H-benzo[b][1,4]oxazine-6-carboxamide]

SMILES | IC50 [1] [nM] | IC50 [2] [nM]
CN1CCCC[C@H]1CN1C(=O)COc2ccc(C(=O)NO)cc21 (stereo in doubt) [Compound I-47, N-hydroxy-4-((1-methylpiperidin-2-yl)methyl)-3-oxo-3,4-dihydro-2H-benzo[b][1,4]oxazine-6-carboxamide] | > 1000 | > 1000
